Experimental data taken from ChEMBL document CHEMBL1201862, “PubChem BioAssay data set” (2004).
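How tested: cells in 96-well plates exposed to compound for 48 hours at five concentrations. Abbreviation: GI50, concentration required for 50% inhibition of growth.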 Active and inactive are the calls of the source. Rule as the data show it: active = GI50 up to about 1.1 µM and inactive = higher.

What was measured:
Experiment in all cases: growth of human tumour cells (NCI), 48 h
MDA-MB-231 = test system: MDA-MB-231
ACHN = test system: ACHN
786-0 = test system: 786-0
UO-31 = test system: UO-31
HL-60 = test system: HL-60
PC-3 = test system: PC-3
UACC-62 = test system: UACC-62
BT-549 = test system: BT-549
OVCAR-3 = test system: OVCAR-3
UACC-257 = test system: UACC-257
TK-10 = test system: TK-10
A498 = test system: A498
CAKI-1 = test system: CAKI-1
SR = test system: SR
SK-OV-3 = test system: SK-OV-3
A549 = test system: A549
SF-268 = test system: SF-268
Malme-3M = test system: Malme-3M
CCRF-CEM = test system: CCRF-CEM
Hs-578T = test system: Hs-578T

Measured: GI50

Cc1ccc(S(=O)(=O)OC2CC(C(C)(C)C)CCC2c2ccccc2)cc1 (stereo not given)
inactive: MDA-MB-231 > 100 µM | ACHN 54.6 µM | 786-0 > 100 µM | UO-31 > 100 µM | HL-60 > 100 µM | PC-3 70 µM | UACC-62 57.5 µM | BT-549 > 100 µM | OVCAR-3 93.5 µM | UACC-257 29 µM | TK-10 > 100 µM | A498 > 100 µM | CAKI-1 66.1 µM | SR 23.6 µM | SK-OV-3 > 100 µM | A549 40.6 µM

COc1ccc(-c2cc3ccccc3oc2=O)cc1OC
inactive: MDA-MB-231 > 100 µM | ACHN > 100 µM | 786-0 70 µM | UO-31 > 100 µM | SF-268 > 100 µM | HL-60 > 100 µM | Malme-3M > 100 µM | CCRF-CEM > 100 µM | UACC-62 > 100 µM | BT-549 > 100 µM | OVCAR-3 > 100 µM | UACC-257 > 100 µM | TK-10 > 100 µM | A498 > 100 µM | CAKI-1 > 100 µM | SR > 100 µM | SK-OV-3 20.3 µM | Hs-578T > 100 µM | A549 > 100 µM

Cn1c2c(c3ccccc31)CCN1C(=O)CN(C(=O)C3CCCCC3)CC21 (stereo not given)
inactive: MDA-MB-231 > 100 µM | ACHN > 100 µM | 786-0 > 100 µM | UO-31 > 100 µM | SF-268 > 100 µM | HL-60 > 100 µM | Malme-3M > 100 µM | CCRF-CEM > 100 µM | PC-3 > 100 µM | UACC-62 > 100 µM | OVCAR-3 > 100 µM | UACC-257 > 100 µM | TK-10 > 100 µM | SR > 100 µM | SK-OV-3 > 100 µM | Hs-578T > 100 µM | A549 > 100 µM

N#CCc1nc(-c2cc3c(ccc4ccccc43)oc2=O)cs1
inactive: MDA-MB-231 17.9 µM | ACHN 27.5 µM | 786-0 22.2 µM | UO-31 38.9 µM | SF-268 31.6 µM | HL-60 > 100 µM | Malme-3M > 100 µM | CCRF-CEM > 100 µM | PC-3 65.5 µM | UACC-62 21.7 µM | BT-549 17.1 µM | UACC-257 26.9 µM | TK-10 18.1 µM | CAKI-1 50.1 µM | SK-OV-3 30.3 µM | Hs-578T 20.3 µM | A549 50 µM

O=C(NNS(=O)(=O)c1ccc(Br)cc1)c1ccc(Cl)cc1NC(=O)C12CC3CC(CC(C3)C1)C2
inactive: ACHN 16 µM | 786-0 19.5 µM | UO-31 11.7 µM | SF-268 11.4 µM | HL-60 18.9 µM | Malme-3M 14.8 µM | CCRF-CEM 14.6 µM | PC-3 15.9 µM | UACC-62 12.4 µM | BT-549 16.7 µM | OVCAR-3 11.6 µM | UACC-257 13.5 µM | TK-10 12.5 µM | A498 15.2 µM | CAKI-1 17 µM | SR 12.4 µM | SK-OV-3 16.4 µM | Hs-578T 17.4 µM | A549 8.15 µM

CC(=O)CSc1c(-c2ccccc2)c(=O)n(-c2ccccc2)c(=S)n1-c1ccccc1
inactive: ACHN > 100 µM | 786-0 > 100 µM | UO-31 > 100 µM | SF-268 > 100 µM | HL-60 > 100 µM | Malme-3M > 100 µM | CCRF-CEM > 100 µM | PC-3 > 100 µM | UACC-62 > 100 µM | BT-549 > 100 µM | OVCAR-3 > 100 µM | UACC-257 > 100 µM | TK-10 > 100 µM | CAKI-1 > 100 µM | SR > 100 µM | SK-OV-3 > 100 µM | Hs-578T 82.2 µM | A549 > 100 µM

COc1cc2c[n+](C)c3c4cc(OC)c(OC)cc4c(OCCCCCCCCOc4cc5c6cc(OC)c(OC)cc6c[n+](C)c5c5cc(OC)c(OC)cc45)cc3c2cc1OC
inactive: ACHN > 100 µM | 786-0 30.6 µM | UO-31 > 100 µM | SF-268 > 100 µM | HL-60 2.23 µM | Malme-3M > 100 µM | CCRF-CEM 24.8 µM | UACC-62 > 100 µM | OVCAR-3 > 100 µM | UACC-257 > 100 µM | TK-10 > 100 µM | A498 > 100 µM | CAKI-1 > 100 µM | SR 4.28 µM | SK-OV-3 > 100 µM | A549 > 100 µM

CCCNC(=S)N/N=C1\C(=O)Nc2ccccc21
inactive: MDA-MB-231 > 100 µM | ACHN > 100 µM | 786-0 > 100 µM | UO-31 > 100 µM | SF-268 > 100 µM | HL-60 > 100 µM | Malme-3M > 100 µM | CCRF-CEM > 100 µM | PC-3 > 100 µM | UACC-62 > 100 µM | OVCAR-3 > 100 µM | UACC-257 > 100 µM | TK-10 > 100 µM | A498 > 100 µM | CAKI-1 > 100 µM | SR > 100 µM | SK-OV-3 > 100 µM | Hs-578T > 100 µM | A549 > 100 µM

CCOC(=O)C1=CC(C)(C(=O)OCC)Nc2c(nc(SC)n(C)c2=O)N1 (stereo not given)
inactive: MDA-MB-231 > 10 µM | ACHN > 10 µM | 786-0 > 10 µM | UO-31 > 10 µM | SF-268 > 10 µM | Malme-3M > 10 µM | CCRF-CEM > 10 µM | PC-3 > 10 µM | BT-549 > 10 µM | OVCAR-3 > 10 µM | UACC-257 > 10 µM | TK-10 > 10 µM | A498 > 10 µM | CAKI-1 > 10 µM | SK-OV-3 > 10 µM | A549 > 10 µM

O=C1c2ccccc2C2CCC1c1ccccc12 (stereo not given)
inactive: ACHN 25.6 µM | 786-0 38.8 µM | UO-31 21.1 µM | SF-268 31.1 µM | HL-60 15 µM | Malme-3M 18.3 µM | CCRF-CEM 23.9 µM | UACC-62 34.6 µM | OVCAR-3 30.5 µM | UACC-257 25.3 µM | TK-10 34.9 µM | A498 58.6 µM | CAKI-1 34.8 µM | SR 20.5 µM | SK-OV-3 41.5 µM | A549 25.2 µM

COc1ccc(C2c3cc4c(cc3OC(N3CCOCC3)C2C)OCO4)cc1 (stereo not given)
inactive: ACHN 21.4 µM | 786-0 23.8 µM | UO-31 19.9 µM | SF-268 27.9 µM | HL-60 21.1 µM | Malme-3M 7.38 µM | CCRF-CEM 20.3 µM | PC-3 22.3 µM | UACC-62 27.6 µM | BT-549 20.3 µM | OVCAR-3 20.8 µM | UACC-257 21.9 µM | TK-10 29.1 µM | A498 6.03 µM | CAKI-1 19.3 µM | SR 15.1 µM | Hs-578T 15.3 µM | A549 23.2 µM

CC(C)(c1ccccc1)c1ccc(OC#N)cc1
inactive: ACHN 68.4 µM | 786-0 > 58.1 µM | UO-31 49.1 µM | SF-268 42 µM | HL-60 36.4 µM | Malme-3M > 100 µM | CCRF-CEM 40.6 µM | UACC-62 > 95.1 µM | OVCAR-3 > 100 µM | UACC-257 > 100 µM | TK-10 > 100 µM | A498 > 100 µM | CAKI-1 > 95.5 µM | SR 19.2 µM | SK-OV-3 98.6 µM | A549 73.5 µM

Cc1nc(N)sc1C(=O)/C=C\c1ccc2c(c1)OCO2
inactive: ACHN > 100 µM | 786-0 > 100 µM | UO-31 > 100 µM | SF-268 > 100 µM | HL-60 > 100 µM | Malme-3M > 100 µM | CCRF-CEM > 100 µM | UACC-62 > 100 µM | OVCAR-3 > 100 µM | UACC-257 > 100 µM | TK-10 > 100 µM | A498 > 100 µM | CAKI-1 > 100 µM | SR > 100 µM | SK-OV-3 > 100 µM | A549 > 100 µM

CC(C)(C)C1=C(Br)C(C(C)(C)C)OP1(=O)O (stereo not given)
inactive: ACHN > 100 µM | 786-0 > 100 µM | UO-31 > 100 µM | SF-268 > 100 µM | HL-60 > 100 µM | Malme-3M > 100 µM | PC-3 > 100 µM | UACC-62 > 100 µM | OVCAR-3 > 100 µM | UACC-257 > 100 µM | TK-10 > 100 µM | A498 > 100 µM | CAKI-1 > 100 µM | SK-OV-3 > 100 µM | Hs-578T > 100 µM | A549 > 100 µM

O=C(NC(=S)NC(=O)c1cc(O)c(O)c(O)c1)c1cc(O)c(O)c(O)c1
inactive: MDA-MB-231 28.8 µM | ACHN 23 µM | 786-0 20 µM | UO-31 22.4 µM | SF-268 31.1 µM | CCRF-CEM 4.41 µM | PC-3 19.7 µM | UACC-62 23.7 µM | UACC-257 22.3 µM | TK-10 28.4 µM | A498 > 100 µM | CAKI-1 21.1 µM | SR > 100 µM | SK-OV-3 23.2 µM | A549 37.1 µM

CC(Oc1ccc2c(-c3ccccc3)cc(=O)oc2c1)C(=O)O (stereo not given)
inactive: ACHN > 100 µM | 786-0 > 100 µM | UO-31 > 100 µM | SF-268 > 100 µM | HL-60 > 100 µM | Malme-3M > 100 µM | CCRF-CEM > 100 µM | UACC-62 > 100 µM | OVCAR-3 > 100 µM | UACC-257 > 100 µM | TK-10 > 100 µM | A498 > 100 µM | CAKI-1 > 100 µM | SR > 100 µM | SK-OV-3 > 100 µM | A549 > 100 µM
